This is an account of results in patent publication US11807640B1 (priority 2023, dated 2023).

In brackets after ≈: the same amount, converted by molar mass.

The test deals with Mycobacterium tuberculosis (MTB) H37Rv. Description: Resazurin Microplate Assay (REMA), anti-tubercular screening, H37Rv. It is filed as cell-based. To be noted: 192 h, Middlebrook 7H9 broth, 37° C., 8 days incubation then resazurin overnight, read-out: MIC (μg/mL) H37Rv. (The colour change of resazurin is a common sign of viable cells or microbes.)

As to `CCOC(=O)c1cc(C(=O)c2ccc(F)cc2)n2ccc(C(=O)OC(C)C)cc12` [KNV-4, 1-Ethyl 7-isopropyl 3-(4-fluorobenzoyl)indolizine-1,7-dicarboxylate], the MIC was found to be 1 µg/mL (≈ 2.52 µM).

With `COC(=O)c1c(C(=O)OC)c2cc(C(=O)OC(C)C)ccn2c1C(=O)c1ccc(Br)cc1` [KNV-7, 7-Isopropyl 1,2-dimethyl 3-(4-bromobenzoyl)indolizine-1,2,7-tricarboxylate], the MIC was determined as 1 µg/mL (≈ 1.99 µM).
